# Results as given in PubChem BioAssay AID328 (DTP/NCI, 2004).
# Several values for one entry are separate records, joined by “and”; a condition that tells them apart may be missing. Identical values can stand only once. Toxic doses and inconclusive results are not listed.
# Tested on: BDF1 mice, P388 leukemia ip, median survival T/C
# Experiment: NCI In Vivo Anticancer Drug Screen. Data for tumor model P388 Leukemia (intraperitoneal) in B6D2F1 (BDF1) mice
# Settings: endpoint: median survival time, higher = longer survival
# How it was run: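 Antitumour effect was judged in vivo: survival in drug-treated mice, normalised to that of vehicle-dosed controls, gives the reported T/C.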
# [1] = dose: 100.0 mg/kg/injection, schedule: Q01DX009 (ip), vehicle: saline with Tween-80
# [2] = dose: 200.0 mg/kg/injection, schedule: Q01DX009 (ip), vehicle: saline with Tween-80
# [3] = dose: 400.0 mg/kg/injection, schedule: Q01DX009 (ip), vehicle: saline with Tween-80
# [4] = dose: 100.0 mg/kg/injection, schedule: Q04DX003 (ip), vehicle: saline with Tween-80
# [5] = dose: 200.0 mg/kg/injection, schedule: Q04DX003 (ip), vehicle: saline with Tween-80
# [6] = dose: 400.0 mg/kg/injection, schedule: Q04DX003 (ip), vehicle: saline with Tween-80
# [7] = dose: 25.0 mg/kg/injection, schedule: Q01DX009 (ip), vehicle: saline with Tween-80
# [8] = dose: 0.39 mg/kg/injection, schedule: Q01DX009 (ip), vehicle: water
smiles,measurement,setting,value
CCOc1ccc(/C=N/Nc2ccc([N+](=O)[O-])cc2)cc1OC,T/C,[1],100 % of control
same,T/C,[2],115 % of control
same,T/C,[3],115 % of control
CCNC(=NC)c1ccc(NC(=O)c2ccc(C(=O)Nc3ccc(C(=NC)NCC)cc3)cc2)cc1,T/C,"dose: 3.9 mg/kg/injection, schedule: Q01DX009 (ip), vehicle: saline with Tween-80",118 % of control
same,T/C,"dose: 4.0 mg/kg/injection, schedule: Q01DX009 (ip), vehicle: saline with Tween-80",179 % of control
same,T/C,"dose: 9.0 mg/kg/injection, schedule: Q01DX009 (ip), vehicle: saline with Tween-80",109 % of control
Cc1ccc(NC(=O)Nc2ccccc2C(F)(F)F)cc1NC(=O)Nc1ccccc1C(F)(F)F,T/C,[4],100 % of control
same,T/C,[5],100 % of control
same,T/C,[6],104 % of control
CC(=O)OC1C=CC(=O)OC1C1OC1C (configuration not stated),T/C,"dose: 3.0 mg/kg/injection, schedule: Q01DX010 (ip), vehicle: carboxymethylcellulose (CMC)",90 % of control
same,T/C,"dose: 6.0 mg/kg/injection, schedule: Q01DX010 (ip), vehicle: carboxymethylcellulose (CMC)",90 % of control
same,T/C,"dose: 12.0 mg/kg/injection, schedule: Q01DX010 (ip), vehicle: carboxymethylcellulose (CMC)",100 % of control
same,T/C,"dose: 25.0 mg/kg/injection, schedule: Q01DX010 (ip), vehicle: carboxymethylcellulose (CMC)",109 % of control
CC(=O)CSc1ncnc2nc[nH]c12,T/C,[1],109 % of control
same,T/C,[2],109 % of control
CCOP(=S)(OCC)Sc1cnn(C)c(=O)c1SCC,T/C,"dose: 50.0 mg/kg/injection, schedule: Q01DX005 (ip), vehicle: saline with Tween-80",100 % of control
same,T/C,"dose: 100.0 mg/kg/injection, schedule: Q01DX005 (ip), vehicle: saline with Tween-80",99 % of control
same,T/C,"dose: 200.0 mg/kg/injection, schedule: Q01DX005 (ip), vehicle: saline with Tween-80",100 % of control
CC1=Nc2ccccc2NC(C)(C)C1,T/C,"dose: 100.0 mg/kg/injection, schedule: Q04DX003 (ip), vehicle: saline",101 % of control
same,T/C,"dose: 200.0 mg/kg/injection, schedule: Q04DX003 (ip), vehicle: saline",99 % of control
same,T/C,"dose: 400.0 mg/kg/injection, schedule: Q04DX003 (ip), vehicle: saline",90 % of control
Nc1nc(SCc2cccc(Br)c2)c2ncn(C3OC(CO)C(O)C3O)c2n1 (configuration not stated),T/C,[4],104 % of control
same,T/C,[5],122 % of control
C=C(CN(CC(=C)C(=O)c1ccccc1)C(C)(C)C)C(=O)c1ccccc1,T/C,"dose: 6.25 mg/kg/injection, schedule: Q01DX009 (ip), vehicle: saline with Tween-80",106 % of control
same,T/C,"dose: 12.5 mg/kg/injection, schedule: Q01DX009 (ip), vehicle: saline with Tween-80",111 % of control
same,T/C,[7],103 % of control
O=[N+]([O-])c1ccc(Sc2cccs2)c([N+](=O)[O-])c1,T/C,[1],100 % of control
same,T/C,[4],104 % of control
same,T/C,[2],95 % of control
same,T/C,[5],95 % of control
same,T/C,[3],108 % of control
same,T/C,[6],100 % of control
CC(=O)OC1CCC2C3CCC4=C(Cl)C(=O)CCC4C3CCC12C (configuration not stated),T/C,"dose: 100.0 mg/kg/injection, schedule: Q04DX003 (sc), vehicle: steriod suspending solution",90 % of control
same,T/C,"dose: 200.0 mg/kg/injection, schedule: Q04DX003 (sc), vehicle: steriod suspending solution",100 % of control
same,T/C,"dose: 400.0 mg/kg/injection, schedule: Q04DX003 (sc), vehicle: steriod suspending solution",100 % of control
C[n+]1c(-c2ccc(Cl)cc2Cl)c2cc(N)ccc2c2ccccc21,T/C,"dose: 0.09 mg/kg/injection, schedule: Q01DX009 (ip), vehicle: water",98 % of control
same,T/C,"dose: 0.19 mg/kg/injection, schedule: Q01DX009 (ip), vehicle: water",90 % of control
same,T/C,[8],98 % of control
same,T/C,"dose: 0.78 mg/kg/injection, schedule: Q01DX009 (ip), vehicle: water",98 % of control
same,T/C,"dose: 1.56 mg/kg/injection, schedule: Q01DX009 (ip), vehicle: water",102 % of control and 120 % of control
same,T/C,"dose: 3.12 mg/kg/injection, schedule: Q01DX009 (ip), vehicle: water",98 % of control and 112 % of control
O=C(NC(CO)C(=O)OCc1ccccc1)OCc1ccccc1 (configuration not stated),T/C,"dose: 100.0 mg/kg/injection, schedule: Q04DX003 (ip), vehicle: Klucel (hydroxypropylcellulose) (HPC)",95 % of control
same,T/C,[4],100 % of control
same,T/C,"dose: 200.0 mg/kg/injection, schedule: Q04DX003 (ip), vehicle: Klucel (hydroxypropylcellulose) (HPC)",87 % of control
same,T/C,[5],100 % of control
same,T/C,"dose: 400.0 mg/kg/injection, schedule: Q04DX003 (ip), vehicle: Klucel (hydroxypropylcellulose) (HPC)",91 % of control
same,T/C,[6],100 % of control
CC(C)CCNc1ncnc2c1cnn2C,T/C,[7],100 % of control
same,T/C,"dose: 50.0 mg/kg/injection, schedule: Q01DX009 (ip), vehicle: saline with Tween-80",100 % of control
same,T/C,[1],109 % of control
CC[C@@]1(O)C[C@H](OC2CC(N(C)C)C(OC3CC(O)C(OC4CCC(=O)C(C)O4)C(C)O3)C(C)O2)c2c(cc3c(c2O)C(=O)c2c(O)ccc(O)c2C3=O)[C@H]1C(=O)OC (some centres not stated),T/C,[8],111 % of control
same,T/C,"dose: 0.5 mg/kg/injection, schedule: Q01DX003 (ip), vehicle: saline",163 % of control
same,T/C,"dose: 0.5 mg/kg/injection, schedule: Q01DX009 (ip), vehicle: water",117 % of control
same,T/C,"dose: 0.65 mg/kg/injection, schedule: Q01DX009 (ip), vehicle: water",152 % of control
same,T/C,"dose: 0.75 mg/kg/injection, schedule: Q01DX010 (ip), vehicle: saline",170 % of control
same,T/C,"dose: 1.0 mg/kg/injection, schedule: Q01DX003 (ip), vehicle: saline",190 % of control
same,T/C,"dose: 1.0 mg/kg/injection, schedule: Q01DX009 (ip), vehicle: saline",154 % of control
same,T/C,"dose: 1.0 mg/kg/injection, schedule: Q01DX009 (ip), vehicle: water",86 % of control
same,T/C,"dose: 1.0 mg/kg/injection, schedule: Q04DX003 (ip), vehicle: water",102 % of control
same,T/C,"dose: 1.08 mg/kg/injection, schedule: Q01DX009 (ip), vehicle: water",177 % of control and 180 % of control
same,T/C,"dose: 1.5 mg/kg/injection, schedule: Q01DX010 (ip), vehicle: saline",175 % of control
same,T/C,"dose: 1.73 mg/kg/injection, schedule: Q04DX003 (ip), vehicle: other",155 % of control
same,T/C,"dose: 1.8 mg/kg/injection, schedule: Q01DX009 (ip), vehicle: water",225 % of control and 200 % of control
same,T/C,"dose: 2.0 mg/kg/injection, schedule: Q01DX003 (ip), vehicle: saline",109 % of control
same,T/C,"dose: 2.0 mg/kg/injection, schedule: Q01DX009 (ip), vehicle: saline",191 % of control
same,T/C,"dose: 2.0 mg/kg/injection, schedule: Q01DX009 (ip), vehicle: water",90 % of control
same,T/C,"dose: 2.0 mg/kg/injection, schedule: Q04DX003 (ip), vehicle: water",119 % of control
same,T/C,"dose: 2.88 mg/kg/injection, schedule: Q04DX003 (ip), vehicle: other",186 % of control
same,T/C,"dose: 3.0 mg/kg/injection, schedule: Q01DX010 (ip), vehicle: saline",90 % of control
same,T/C,"dose: 4.8 mg/kg/injection, schedule: Q04DX003 (ip), vehicle: other",109 % of control
same,T/C,"dose: 5.0 mg/kg/injection, schedule: Q04DX003 (ip), vehicle: water",203 % of control
same,T/C,"dose: 8.44 mg/kg/injection, schedule: Q01DX001 (ip), vehicle: water",158 % of control
same,T/C,"dose: 10.0 mg/kg/injection, schedule: Q04DX003 (ip), vehicle: water",88 % of control
same,T/C,"dose: 11.25 mg/kg/injection, schedule: Q01DX001 (ip), vehicle: water",152 % of control
same,T/C,"dose: 13.33 mg/kg/injection, schedule: Q04DX003 (ip), vehicle: water",117 % of control
same,T/C,"dose: 15.0 mg/kg/injection, schedule: Q01DX001 (ip), vehicle: water",100 % of control
same,T/C,"dose: 20.0 mg/kg/injection, schedule: Q01DX001 (ip), vehicle: water",50 % of control
C=C(CC(=O)O)C(=O)O (tested in a mixture with another compound),T/C,"dose: 44.0 mg/kg/injection, schedule: Q01DX009 (ip), vehicle: saline",120 % of control
O=C(O)CNC(=O)/C(=C\c1[nH]c(=O)[nH]c(=O)c1Br)NC(=O)c1ccccc1,T/C,[4],90 % of control
same,T/C,[5],104 % of control
same,T/C,[6],100 % of control
CCCCSC1=CC(=O)c2ccccc2C1=O,T/C,"dose: 3.12 mg/kg/injection, schedule: Q01DX009 (ip), vehicle: Klucel (hydroxypropylcellulose) (HPC)",92 % of control and 104 % of control
same,T/C,"dose: 6.25 mg/kg/injection, schedule: Q01DX009 (ip), vehicle: Klucel (hydroxypropylcellulose) (HPC)",100 % of control and 116 % of control
same,T/C,"dose: 12.5 mg/kg/injection, schedule: Q01DX009 (ip), vehicle: Klucel (hydroxypropylcellulose) (HPC)",100 % of control and 107 % of control and 108 % of control
CCOC(=O)C1C(=O)C(C(=O)Nc2ccccc2)C(=O)C(C(=O)OCC)C1c1ccc(O)cc1 (configuration not stated),T/C,[4],110 % of control and 90 % of control
same,T/C,[5],115 % of control
same,T/C,[6],110 % of control and 100 % of control
